In brackets after ≈: the same amount, converted by molar mass. Counter-ions that a name gives are not always drawn. Like-named read-outs stand apart in the source and are kept apart here.

For one series, the system named is Escherichia coli, A15119. As to the kind of experiment: In vitro antibacterial activity (MIC), serial 2-fold dilution. The class given is cell-based. The following applies: read-out: Antibacterial Activity MIC E. coli. The protocol: (§1) In vitro antibacterial activity was determined by serial 2-fold dilution of the compound in Mueller-Hinton agar and inoculation of the agar surface or broth with an appropriately diluted 18-24 h broth culture.

In series [1] the test system is Pseudomonas aeruginosa, A9843. The description is as above. The class given is cell-based. The following applies: read-out: Antibacterial Activity MIC P. aer. The protocol:
as §1

For series [2], the system named is Streptococcus pneumoniae, A9585. The description is as above. The format is cell-based. The note with it: read-out: Antibacterial Activity MIC S. pn. The protocol:
as §1

Series [3] is described as follows: Chemical stability in aqueous solution (half-life). The following applies: 37°C, 10^-4 M, pH 7.4, aqueous solution; read-out: Half-life (T 1/2) (converted). The format is physicochemical. The protocol: These values were determined by the method of Woodward et al, J. Am. Chem. Soc., 102, 2042 (1980)
The mark [4] stands for this setting: Escherichia coli A15119, Mueller-Hinton, 37°C, 17 h.
The mark [5] stands for this setting: Pseudomonas aeruginosa A9843, Mueller-Hinton, 37°C, 17 h.
Where [6] appears, read: Streptococcus pneumoniae A9585, Mueller-Hinton, 37°C, 17 h.

Turning to `C[C@@H](O)[C@H]1C(=O)N2C(C(=O)O)=C(SCc3cn(C)nn3)[C@H](CCCNC=N)[C@H]12` [Example 94, (4R.5S,6S)-4-[3"-(N-Formimidoyi)aminopropyi]-6-[(1'R)-1'-hydroxyethyl]-3-[(1-methyl-1,2,3-triazol-4-yl)-methylthio]-7-oxo-1-azabicyclo[3.2.0]hept-ene-2-carboxylic acid], the minimal inhibitory concentration (MIC) in the series on Escherichia coli, A15119 (setting [4]) turned out to be 0.008 µg/mL (≈ 0.0196 µM); in series [1] (setting [5]), 8 µg/mL (≈ 19.6 µM); in series [2] (setting [6]), 0.06 µg/mL (≈ 0.147 µM). Further, the half-life at 100 µM in series [3] was 88 h.
In the same order, the values of `C[C@@H](O)[C@H]1C(=O)N2C(C(=O)O)=C(SCC(=N)N(C)C)[C@H](CCCN)[C@H]12` [Example 130, (4R,5S,6S)-4-(3"-Aminopropyl)-3-[(N,N-dimethylamidinomethyl]thio]-6-[(1'R)-1'-hyroxyethyl]-7-oxo-1-azabicyclo[3.2.0]hept-2-ene-2-carboxylic acid, acetic acid salt] are 0.13 µg/mL, 0.06 µg/mL, 0.13 µg/mL and 16 h.
In the same order, the values of `C[C@@H](O)[C@H]1C(=O)N2C(C(=O)O)=C(SCCO)[C@H](CCCCN(C)C)[C@H]12` [Example 91, (4R,5S,6S)-4-(4"-N,N-Dimethylaminobutyl)-6-[(1'R)-1'-hydroxyethyl]-3-[(2-hydroxyethyl)thio]-7-oxo-1-azabicyclo-[3.2.0]hept-2-ene-2-carboxylic acid] are 0.016 µg/mL (≈ 0.043 µM), 4 µg/mL (≈ 10.7 µM), 0.5 µg/mL (≈ 1.34 µM) and 150 h.
The corresponding values for `C[C@@H](O)[C@H]1C(=O)N2C(C(=O)O)=C(SCc3ccccn3)[C@H](CCN)[C@H]12` [Example 3, (4R,5S,6S)-4-(2"-Aminoethyl)-6-[(1'R)-1'-hydroxyethyl]-3-[(pyridin-2-yl)methylthio]-7-oxo-1-azabicyclo-[3.2.0]-hept-2-ene-2-carboxylic acid] are 0.016 µg/mL (≈ 0.044 µM), 2 µg/mL (≈ 5.5 µM), 0.13 µg/mL (≈ 0.358 µM) and 3.2 h.
As for `C[C@@H](O)[C@H]1C(=O)N2C(C(=O)O)=C(SCCN3CCCC3)[C@H](CCCN)[C@H]12` [Example 120, (4R,5S,6S)-4-(3"-Aminopropyl)-6-[(1'R)-1'-hydroxyethyl]-3-[2-(1-pyrrolidinyl)ethylthio]-7-oxo-1-azabicyclo-[3.2.0]-hept-2-ene-2-carboxylic acid, acetic acid salt], the MIC in the series with Escherichia coli, A15119 (setting [4]) is 0.13 µg/mL; in series [1] (setting [5]) it was 0.25 µg/mL; in series [2] (setting [6]), 0.03 µg/mL. Further, the half-life at 100 µM in series [3] is 23 h.
As for `C[C@H](N)C(=O)N[C@@H](C)C(=O)NCC[C@H]1C(SCCC#N)=C(C(=O)O)N2C(=O)[C@H]([C@@H](C)O)[C@@H]12` [Example 146, (4R,5S,6S)-6-[(1'R)-1'-Hydroxyethyl]-3-[(2-cyanoethyl)-thio]-4-[2"-(L-alanyl-L-alanyl)-aminoethyl]-7-oxo-1-azabicyclo-[3.2.0]hept-2-ene-2-carboxylic acid], the MIC with Escherichia coli, A15119 (setting [4]) was 0.125 µg/mL (≈ 0.267 µM); in series [1] (setting [5]) it was 128 µg/mL (≈ 274 µM); in series [2] (setting [6]) it was 0.25 µg/mL (≈ 0.535 µM).
In the same order, the values of `C[C@H](N)C(=O)NCC[C@H]1C(SCCC#N)=C(C(=O)O)N2C(=O)[C@H]([C@@H](C)O)[C@@H]12` [Example 145, (4R,5S,6S)-6-[(\1'R)-1'-Hydroxyethyl]-3-[(2-cyanoethyl)-thio]-4-[2"-(L-alanyl)-aminoethyl]-7-oxo-1-azabicyclo-[3.2.0]hept-2-ene-2-carboxylic acid] are 0.125 µg/mL (≈ 0.315 µM), 8 µg/mL (≈ 20.2 µM) and 0.125 µg/mL (≈ 0.315 µM).
Take `C[C@@H](O)[C@H]1C(=O)N2C(C(=O)O)=C(SCCN=CN)C[C@H]12` [Imipenem, imipenem, reference compound]: the MIC amounted to 0.03 µg/mL (≈ 0.1 µM) in the series on Escherichia coli, A15119 (Escherichia coli, A15119, 17 h); 2 µg/mL (≈ 6.68 µM) in series [1] (Pseudomonas aeruginosa, A9843, 17 h); 0.002 µg/mL (≈ 0.00668 µM) in series [2] (Streptococcus pneumoniae, A9585, 17 h).
